Measurements published in patent publication US20050014692A1, “Lactate dehydrogenase as a novel target and reagent for diabetes therapy” (priority 2003, published 2005).
Entries after “also recorded” stand apart in the source; their conditions may differ.

Tests used:
[1] = tested on: glycerol kinase overexpressing 832/13 cells; experiment: 13C studies in glycerol kinase overexpressing 832/13 cells (insulin secretion, lactate output, pyruvate cycling); assay type: cell-based, rat
From the text: FIG. 9 depicts the effect of glycerol kinase overexpression in 832/13 cells on insulin excretion, lactate output and pyruvate cycling.
In contrast, pyruvate cycling and lactate output are higher in response to glycerol than to glucose.

832/13 cells = experiment: Insulin secretion assay in 832/13 cells (radioimmunoassay); assay type: cell-based, rat
Description: FIG. 3. Stimulation of insulin secretion by lactate, pyruvate, and glucose in 832/13 cells. Confluent, insulin secreting 832/13 cells were stimulated for 2 hours with various concentrations of secretagogues as indicated in the figure, and IS was determined by radioimmunoassay of the cell supernatant.
FIG. 4. The effect of rat LDHA overexpression on glucose, pyruvate, and lactate-stimulated insulin secretion in 832/13 cells. 832/13 cells were treated with adenovirus expressing rat LDHA (AdLDH) and beta-galactosidase (Adbetagal), respectively. The LDH activity in cell extracts was monitored by the decrease in absorbance at 340 nm (insert) and the insulin response to glucose, pyruvate, and lactate was examined by radioimmunoassay.
FIG. 7B. The effect of the LDH inhibitor oxamate on insulin secretion in 832/13 cells. Cells were incubated with ^13C labeled glucose for 4 hours in the presence or absence of oxamate.
FIG. 14. The effect of mitLDHA and LDHA on fuel-mediated IS in the 832/13 cells. The inset depicts the activity of LDH for each experiment.
The cell line 832/13 was created from INS-1 insulinoma β-cells as described earlier (Hohmeier et al. (2000) Diabetes 49:424430). Cells were cultured in RPMI-1640 medium containing 11 mM glucose supplemented with 10% fetal bovine serum, 10 mM HEPES, 2 mM glutamine, 1 mM sodium pyruvate and […] β-mercaptoethanol. Media was routinely changed every second day. […]
Insulin secretion was assayed in HEPES buffered saline solution (HBSS) (114 mM NaCl, 4.7 mM KCl, 1.2 mM KH2PO4, 1.16 mM MgSO4, 20 mM HEPES, 2.5 mM CaCl2, 25.5 mM NaHCO3, pH 7.2 containing 0.2% bovine serum albumin (essentially fatty acid free). Cells were washed in 1 ml of HBSS, preincubated in 1.5 ml of HBSS for 2 hour prior to a 2 hour incubation in the presence of secretagogues as indicated in the figures. The insulin levels were determined by radioimmunoassay with the Coat-A-Count kit (ICN Pharmaceuticals, Costa Mesa, Calif.) and lactate output was determined with a Lactate Reagent kit (Sigma, St. Louis, Mo.) according to protocols outlined by the manufacturer.

[2] = tested on: cell lines derived from rat INS-1 cells; settings: glucose-responsive clones; in direct correlation with changes in pyruvate cycling; cited from earlier work

Compound: OCC(O)CO [glycerol]
- lactate output, compared with glucose [1]: higher
- pyruvate cycling, compared with glucose [1]: higher
- stimulation of insulin secretion, compared with glucose [1]: to the same extent

Compound: CC(O)C(=O)O (centres unmarked) [lactate]
- stimulation of insulin secretion as secretagogue (832/13 cells; 832/13 cells overexpressing LDHA (AdLDH treated)): as effective as the other two fuels; also recorded: as effective as glucose or pyruvate
- stimulation of insulin secretion as secretagogue (832/13 cells; 832/13 cells without LDHA overexpression, 2 hours, relative to glucose or pyruvate): poor secretagogue; also recorded: only a weak stimulator
- stimulation of insulin secretion as secretagogue (832/13 cells; 832/13 cells without LDHA overexpression, 2 hours, relative to glucose or pyruvate, listed as Lactate): poor secretagogue

Compound: O=C(O)Cc1ccccc1 [phenylacetic acid]
- effect on glucose-stimulated IS [2]: impaired

Compound: malate in the form of methyl ester
- effect on glucose-stimulated IS [2]: potentiated
